Results published in paper PMC10244282 (Naunyn-Schmiedeberg's Archives of Pharmacology, 2023).

Key:
human 5-HT4 receptor [1] = molecular target: T1, human 5-HT4 receptor (Homo sapiens, UniProt Q13639); assay: Isolated electrically stimulated (1 Hz) left atrial preparations from 5-HT4-TG mice, organ bath contractility; design: species or system human (expressed in cardiomyocytes of transgenic mice)
T1 construct: expressed in transfected cells; host or cells: cardiomyocytes of transgenic mice (alpha-myosin heavy chain promoter); isolated left and right atria and Langendorff-perfused hearts
Description: (§1) A mouse with cardiomyocyte-specific expression of the human 5-HT4(a) receptor has been generated in our laboratory (Gergs et al. [2010]). The cardiac myocyte-specific expression was achieved by the use of the α-myosin heavy chain promoter. The age of the animals studied in the atrial contraction experiments was around 4 months. Both genders were studied. All mice were housed under conditions of optimum light, temperature, and humidity with food and water provided ad libitum. The investigation conformed to the Guide for the Care and Use of Laboratory Animals as published by the National Research Council (2011). The animals were handled and maintained according to the approved protocols of the Animal Welfare Committee of the University of Halle-Wittenberg, Halle, Germany.
(§2) In brief, the right or left atrial preparations from the mice were isolated and mounted in organ baths as previously described (Gergs et al. [2013]; Neumann et al. [2003]). […] The solution was continuously gassed with 95% O2 and 5% CO2 and maintained at 37 °C and pH 7.4 (Kirchhefer et al. [2004]; Neumann et al. [1998], [2003]). Spontaneously beating right atrial preparations from mice were used to study any chronotropic effects.
(§3) The drug application was as follows.

human 5-HT4 receptor [2] = molecular target: T1, human 5-HT4 receptor; assay: Spontaneously beating right atrial preparations from 5-HT4-TG mice, beating rate; design: species or system human (expressed in cardiomyocytes of transgenic mice); details: right atrium of 5-HT4-TG; for Beating rate: 5-HT 1 µM; for Beating rate / Beating rate in % of 1 µM 5-HT: bufotenin 3 µM, tryptamine 100 µM
Description: as §1, §2, §3

[3] = test system: atrial preparations from WT mice; assay: Isolated left and right atrial preparations from wild-type (WT) littermates; design: species or system mouse; details: for effect on beating rate in WT right atrium: spontaneously beating right atrium
Protocol: as §2, §3

human 5-HT4 receptor [4] = molecular target: T1, human 5-HT4 receptor; assay: Langendorff perfused hearts from 5-HT4-TG mice; design: species or system human (expressed in cardiomyocytes of transgenic mice); details: 1 µM, n = 5, p < 0.05
Protocol: (§4) We followed previously reported methods for the treatment of the animals. This included the removal of the heart and lungs from the thoracic cavity, placing the dissected heart onto a cannula, the use of custom-made equipment, the buffer composition, quantification of the force from the left ventricular apex, digitization of the recordings, and freeze clamping the hearts (Boknik et al. [2019]; Gergs et al. [2019b]).
(§5) Isolated hearts were prepared according to Langendorff (1895).

[5] = test system: Langendorff hearts from WT mice; assay: Langendorff perfused hearts from WT mice; design: species or system mouse; details: data not shown, n = 3
Protocol: as §4, §5

[6] = molecular target: T2, human cardiac 5-HT4 receptors (Homo sapiens, UniProt Q13639); assay: Isolated electrically stimulated (1 Hz) human right atrial preparations, contractility
T2 construct: from tissue; host or cells: human right atrial preparations (musculi pectinati) from male bypass-surgery patients
Description: The contractile studies on human right atrial preparations were done using the same setup and buffer as used in the mouse studies (see “Contractile studies in mice” section). The samples were obtained from male patients that underwent a bypass surgery (Table 1). Drug therapy included β-receptor blockers, calcium channel blockers, angiotensin-converting enzyme inhibitors/angiotensin receptor blockers, diuretics, direct oral anti-coagulants, metformin, statins, and acetyl salicylic acid. Our methods used for atrial contraction studies in human samples have been previously published and were not altered in this study (Boknik et al. [2019]; Gergs et al. [2009], [2017b], [2018]). This study complies with the Declaration of Helsinki and has been approved by the local ethics committee (hm-bü 04.08.2005) and all patients gave informed consent.

[7] = test system: phosphorylation state of phospholamban (serine 16); assay: Western blot of serine 16 phosphorylation of phospholamban in human right atrial preparations; details: electrically stimulated human right atrial preparations
Description: This is seen in the original tracings (Fig. 7A). […] Calsequestrin was monitored as a loading control in these gels. […] The mouse samples are shown for comparison.

porcine 5-HT4 receptors = molecular target: porcine 5-HT4 receptors; design: method as in Medhurst and Kaumann [1993]; details: isolated right atrial preparations of pigs; ref Medhurst and Kaumann [1993]; cited from earlier work
[8] = design: method as in Ott [2001]; details: humans, ref Ott [2001], cited from earlier work
[9] = test system: phosphorylation state of phospholamban (serine 16); assay: Western blot of serine 16 phosphorylation of phospholamban in cardiac preparations of WT mice; details: 1 µM; Langendorff hearts from WT
[10] = test system: phosphorylation state of phospholamban (serine 16); assay: Western blot of serine 16 phosphorylation of phospholamban in cardiac preparations of 5-HT4-TG mice; details: 1 µM
MAO A = test system: MAO A; design: method as in Fisar et al. [2010]; details: in vitro, irreversible; ref Fisar et al. [2010]; read-out: IC50 (half inhibitory concentration) MAO A; cited from earlier work
MAO B = test system: MAO B; design: method as in Fisar et al. [2010]; details: in vitro, irreversible; ref Fisar et al. [2010]; read-out: IC50 (half inhibitory concentration) MAO B; cited from earlier work
[11] = left atrium of 5-HT4-TG, 5-HT 1 µM, bufotenin 3 µM, tryptamine 100 µM
[12] = left atrium of 5-HT4-TG, bufotenin 3 µM, tryptamine 100 µM
[13] = pD2 (negative decadic logarithm of EC50), force of contraction, left atrium of 5-HT4-TG
[14] = pD2, dF/dtmax, left atrium of 5-HT4-TG
[15] = pD2, dF/dtmin, left atrium of 5-HT4-TG
[16] = pD2, time of relaxation (TR), left atrium of 5-HT4-TG
[17] = pD2, time to peak (TTP), left atrium of 5-HT4-TG

T1 sequence (Q13639 1-387 isoform Q13639-2): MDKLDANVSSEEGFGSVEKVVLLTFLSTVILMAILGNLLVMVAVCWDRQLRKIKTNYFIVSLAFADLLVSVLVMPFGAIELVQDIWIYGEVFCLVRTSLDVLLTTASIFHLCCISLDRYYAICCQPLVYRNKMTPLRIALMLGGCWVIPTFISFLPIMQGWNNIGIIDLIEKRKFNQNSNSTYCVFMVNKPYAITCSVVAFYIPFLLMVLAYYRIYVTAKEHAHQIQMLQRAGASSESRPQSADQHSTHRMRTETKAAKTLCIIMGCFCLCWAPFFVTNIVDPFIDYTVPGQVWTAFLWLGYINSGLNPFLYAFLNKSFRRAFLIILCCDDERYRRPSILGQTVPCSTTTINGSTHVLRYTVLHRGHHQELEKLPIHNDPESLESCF
T2 sequence (Q13639 whole entry): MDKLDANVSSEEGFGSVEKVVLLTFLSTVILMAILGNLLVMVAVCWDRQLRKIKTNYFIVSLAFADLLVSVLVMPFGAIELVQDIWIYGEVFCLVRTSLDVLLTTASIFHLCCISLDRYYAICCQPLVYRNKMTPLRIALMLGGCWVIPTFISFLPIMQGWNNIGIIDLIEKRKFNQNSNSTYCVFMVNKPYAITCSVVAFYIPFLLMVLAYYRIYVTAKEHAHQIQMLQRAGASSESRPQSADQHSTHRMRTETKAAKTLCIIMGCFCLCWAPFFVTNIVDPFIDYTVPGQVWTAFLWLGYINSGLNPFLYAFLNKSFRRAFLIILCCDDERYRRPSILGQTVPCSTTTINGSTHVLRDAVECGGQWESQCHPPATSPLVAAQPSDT

SMILES | Force (human 5-HT4 receptor [1]; [11]) [mN] | TTP (human 5-HT4 receptor [1]; [11]) [ms] | dF/dtmax (human 5-HT4 receptor [1]; [11]) [mN/s] | Force in % of 1 µM 5-HT (human 5-HT4 receptor [1]; [12]) | TR in % of 1 µM 5-HT (human 5-HT4 receptor [1]; [12]) | TTP in % of 1 µM 5-HT (human 5-HT4 receptor [1]; [12]) | dF/dtmax in % of 1 µM 5-HT (human 5-HT4 receptor [1]; [12]) | dF/dtmin in % of 1 µM 5-HT (human 5-HT4 receptor [1]; [12]) | EC50 (human 5-HT4 receptor [1]; [13]) [nM] | EC50 (human 5-HT4 receptor [1]; [14]) [nM] | EC50 (human 5-HT4 receptor [1]; [15]) [nM] | EC50 (human 5-HT4 receptor [1]; [16]) [nM] | EC50 (human 5-HT4 receptor [1]; [17]) [nM] | Beating rate (human 5-HT4 receptor [2]) [bpm] | Beating rate in % of 1 µM 5-HT (human 5-HT4 receptor [2]) | effect on beating rate in WT right atrium [3] | effect in Langendorff hearts from WT mice [5] | pD2, beating rate (porcine 5-HT4 receptors) | further results
CN(C)CCc1c[nH]c2ccc(O)cc12 [Bufotenin, 5-hydroxy-N,N-dimethyl-tryptamine] | 6.45 ± 0.75 | 12.84 ± 0.15 | 440.7 ± 61.25 | 91% ± 5% | 103% ± 2% | 98% ± 0% | 87% ± 6% | 88% ± 6% | 170 | 126 | 120 | 490 | 355 | 396 ± 35 | 107% ± 7% | not WT | inactive | 5.95 | change of the effects in left and right atrium by 50 µM pargyline (human 5-HT4 receptor [1]; left and right atrium of 5-HT4-TG, 50 µM pargyline): shifted to the left; EC50 (human 5-HT4 receptor [2]; pD2, beating rate): 91.2 nM; positive inotropic effect in WT left atrial preparations ([3]; electrically stimulated (1 Hz) left atrium): no effects; force of contraction after drug (human 5-HT4 receptor [4]; increased from 9.74 ± 1.51 mN): 15.6 ± 1.42 mN; rate of relaxation after drug (human 5-HT4 receptor [4]; increased from 227 ± 43 mN/s): 515 ± 43 mN/s; rate of force development after drug (human 5-HT4 receptor [4]; increased from 315 ± 57 mN/s): 653 ± 86 mN/s; inotropic effect in isolated paced human atrial trabeculae ([6]; 0.1–10 µM, 1 Hz): concentration- and time-dependent positive inotropic effects; phosphorylation state of phospholamban [7]: increased; parenteral dose needed to bring about hallucinogenic effects ([8]; parenteral): 10 mg; per-oral dose needed to bring about hallucinogenic effects ([8]; per-oral): 100 mg; phosphorylation state of phospholamban on serine 16 in isolated hearts [9]: not WT; phosphorylation state of phospholamban on serine 16 in isolated hearts ([10]; Langendorff hearts from 5-HT4-TG): increased; phosphorylation state of phospholamban on serine 16 in atria ([10]; atria of 5-HT4-TG): increased
CN1[C@@H]2CC[C@H]1C[C@@H](OC(=O)c1c[nH]c3ccccc13)C2 [Tropisetron, tropisetron] | – | – | – | – | – | – | – | – | – | – | – | – | – | – | – | – | – | – | antagonism of the positive inotropic effect of bufotenin ([6]; tropisetron 10 µM additionally applied): revoked the positive inotropic effect of bufotenin
NCCc1c[nH]c2ccccc12 [Tryptamine, tryptamine] | 5.74 ± 0.84 | 13.28 ± 0.07 | 393.56 ± 52.26 | 81% ± 7% | 97% ± 2% | 94% ± 1% | 78% ± 5% | 82% ± 4% | 26900 | 18600 | 18600 | 2880 | 6610 | 388 ± 41 | 105% ± 5% | not from WT | inactive | 4.87 | agonist efficacy on 5-HT4 receptors compared to 5-HT (human 5-HT4 receptor [1]; 5-HT4-TG atrial preparations): partial agonist; efficacy to increase force of contraction and beating rate compared with isoproterenol (human 5-HT4 receptor [1]; 5-HT4-TG, 1 µM isoproterenol given after): less effective than isoproterenol; TR (human 5-HT4 receptor [1]; [11]): 27.61 ± 1.25 ms; EC50 (human 5-HT4 receptor [2]; read-out: pD2, beating rate (converted)): 5370 nM
